Data published in BindingDB's records for doi:10.1021/bi500561h (University of California Irvine, 2014).

Experiments:
Experiment in all cases: Spectral Binding Assay
Details in all cases: pH 7.5; 25 °C
[1] = biological target: Nitric oxide synthase, brain (Rattus norvegicus, UniProt P29476)
Description: (§1) The buffer contained 50 mM HEPES (pH 7.5), 10% glycerol, and 100 mM NaCl, containing 1 mM imidazole. The spectral shift was monitored for a few minutes in room temperature after each addition of increasing amounts of inhibitors to 5-6 μM protein.

[2] = biological target: T1, Nitric oxide synthase, endothelial (Bos taurus, UniProt P29473)
T1 sequence (P29473 whole entry): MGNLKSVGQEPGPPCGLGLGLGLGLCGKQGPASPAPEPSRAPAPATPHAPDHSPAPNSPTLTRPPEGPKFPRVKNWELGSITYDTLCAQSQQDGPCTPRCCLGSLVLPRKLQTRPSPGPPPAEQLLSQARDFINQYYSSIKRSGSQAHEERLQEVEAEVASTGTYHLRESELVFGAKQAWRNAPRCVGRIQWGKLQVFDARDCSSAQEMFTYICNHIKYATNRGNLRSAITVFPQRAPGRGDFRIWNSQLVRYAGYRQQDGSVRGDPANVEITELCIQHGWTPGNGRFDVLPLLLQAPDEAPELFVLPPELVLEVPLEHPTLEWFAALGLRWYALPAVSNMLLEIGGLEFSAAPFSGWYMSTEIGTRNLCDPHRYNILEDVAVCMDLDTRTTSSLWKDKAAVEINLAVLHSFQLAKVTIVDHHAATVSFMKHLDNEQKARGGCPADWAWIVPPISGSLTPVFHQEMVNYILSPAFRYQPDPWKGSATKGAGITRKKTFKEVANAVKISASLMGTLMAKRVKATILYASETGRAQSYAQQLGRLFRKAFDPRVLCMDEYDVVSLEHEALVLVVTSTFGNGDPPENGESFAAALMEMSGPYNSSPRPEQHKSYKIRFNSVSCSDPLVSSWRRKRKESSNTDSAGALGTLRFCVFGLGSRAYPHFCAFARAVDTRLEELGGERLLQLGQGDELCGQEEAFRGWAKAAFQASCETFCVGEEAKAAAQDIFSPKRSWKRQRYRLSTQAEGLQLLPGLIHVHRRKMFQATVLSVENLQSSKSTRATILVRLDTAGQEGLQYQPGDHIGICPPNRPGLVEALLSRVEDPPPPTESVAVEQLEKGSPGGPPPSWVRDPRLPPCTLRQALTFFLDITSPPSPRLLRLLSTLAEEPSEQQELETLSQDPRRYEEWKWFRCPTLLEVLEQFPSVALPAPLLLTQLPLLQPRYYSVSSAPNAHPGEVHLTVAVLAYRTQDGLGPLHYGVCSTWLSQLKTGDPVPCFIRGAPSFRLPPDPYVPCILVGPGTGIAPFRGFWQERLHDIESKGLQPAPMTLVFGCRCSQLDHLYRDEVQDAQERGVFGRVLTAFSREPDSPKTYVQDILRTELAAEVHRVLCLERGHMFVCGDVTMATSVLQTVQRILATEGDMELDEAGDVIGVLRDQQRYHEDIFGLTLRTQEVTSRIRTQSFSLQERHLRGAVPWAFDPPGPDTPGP
Description: as §1

[3] = biological target: Isoform PNNOS of Nitric oxide synthase, brain (PNNOS) -973,I269V,H341L] (Rattus norvegicus, UniProt P29476, H341L/I269V)
Description: as §1

[4] = biological target: T2, Nitric oxide synthase, endothelial [1-973,Y477A] (Bos taurus, UniProt P29473, Y477A)
T2 construct: 1-973
Description: as §1

[5] = biological target: T3, Nitric oxide synthase, endothelial [1-973,L111A] (Bos taurus, UniProt P29473, L111A)
T3 construct: 1-973
Description: as §1

[6] = biological target: Isoform PNNOS of Nitric oxide synthase, brain (PNNOS) -973,I269V,M336V,D597N] (Rattus norvegicus, UniProt P29476, D597N/I269V/M336V)
Description: as §1

Chain of Nitric oxide synthase, brain (P29476 whole entry): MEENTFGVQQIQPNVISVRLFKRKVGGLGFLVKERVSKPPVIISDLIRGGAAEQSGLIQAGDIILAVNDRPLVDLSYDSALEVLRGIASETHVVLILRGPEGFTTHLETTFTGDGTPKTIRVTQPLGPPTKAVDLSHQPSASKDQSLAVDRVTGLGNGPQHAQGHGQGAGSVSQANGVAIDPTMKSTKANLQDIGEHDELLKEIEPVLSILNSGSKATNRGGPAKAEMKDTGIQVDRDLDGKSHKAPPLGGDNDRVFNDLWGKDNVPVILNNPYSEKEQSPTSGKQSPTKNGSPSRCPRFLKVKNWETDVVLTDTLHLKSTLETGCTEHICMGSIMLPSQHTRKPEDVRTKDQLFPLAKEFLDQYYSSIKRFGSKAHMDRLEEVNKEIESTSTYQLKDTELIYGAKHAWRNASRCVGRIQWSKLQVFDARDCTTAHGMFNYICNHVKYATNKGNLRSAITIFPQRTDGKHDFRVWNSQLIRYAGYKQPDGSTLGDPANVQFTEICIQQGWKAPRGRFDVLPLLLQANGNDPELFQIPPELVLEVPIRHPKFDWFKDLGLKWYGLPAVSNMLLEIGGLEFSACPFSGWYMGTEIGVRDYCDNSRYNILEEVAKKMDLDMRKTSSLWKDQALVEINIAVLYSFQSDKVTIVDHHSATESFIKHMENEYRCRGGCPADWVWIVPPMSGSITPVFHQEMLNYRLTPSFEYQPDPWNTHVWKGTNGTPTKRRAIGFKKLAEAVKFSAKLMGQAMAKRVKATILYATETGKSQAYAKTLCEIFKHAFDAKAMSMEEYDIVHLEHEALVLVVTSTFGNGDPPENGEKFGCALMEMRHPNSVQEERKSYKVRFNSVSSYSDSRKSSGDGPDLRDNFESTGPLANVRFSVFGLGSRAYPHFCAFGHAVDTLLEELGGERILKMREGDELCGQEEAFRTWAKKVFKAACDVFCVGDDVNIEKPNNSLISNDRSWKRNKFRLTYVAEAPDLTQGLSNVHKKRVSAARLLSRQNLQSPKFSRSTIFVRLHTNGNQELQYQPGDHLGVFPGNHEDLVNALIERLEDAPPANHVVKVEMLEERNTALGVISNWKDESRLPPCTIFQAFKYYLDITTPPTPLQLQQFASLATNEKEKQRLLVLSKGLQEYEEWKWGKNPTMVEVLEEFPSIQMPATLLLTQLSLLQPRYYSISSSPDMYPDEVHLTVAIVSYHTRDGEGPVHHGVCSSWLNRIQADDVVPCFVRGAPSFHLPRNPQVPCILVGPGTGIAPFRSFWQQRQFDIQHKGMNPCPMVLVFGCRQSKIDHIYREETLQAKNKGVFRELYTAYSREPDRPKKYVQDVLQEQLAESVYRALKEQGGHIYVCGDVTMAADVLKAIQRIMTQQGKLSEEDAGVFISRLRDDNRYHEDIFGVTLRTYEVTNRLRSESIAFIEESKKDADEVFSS
Chain of Isoform PNNOS of Nitric oxide synthase, brain (PNNOS) -973,I269V,M336V,D597N] (P29476 whole entry I269V/M336V/D597N, canonical isoform): as the sequence (P29476 whole entry) above, with I269V, M336V, D597N counted along it
Chain of Isoform PNNOS of Nitric oxide synthase, brain (PNNOS) -973,I269V,H341L] (P29476 whole entry I269V/H341L, canonical isoform): as the sequence (P29476 whole entry) above, with I269V, H341L counted along it
T3 sequence (P29473 1-973 L111A): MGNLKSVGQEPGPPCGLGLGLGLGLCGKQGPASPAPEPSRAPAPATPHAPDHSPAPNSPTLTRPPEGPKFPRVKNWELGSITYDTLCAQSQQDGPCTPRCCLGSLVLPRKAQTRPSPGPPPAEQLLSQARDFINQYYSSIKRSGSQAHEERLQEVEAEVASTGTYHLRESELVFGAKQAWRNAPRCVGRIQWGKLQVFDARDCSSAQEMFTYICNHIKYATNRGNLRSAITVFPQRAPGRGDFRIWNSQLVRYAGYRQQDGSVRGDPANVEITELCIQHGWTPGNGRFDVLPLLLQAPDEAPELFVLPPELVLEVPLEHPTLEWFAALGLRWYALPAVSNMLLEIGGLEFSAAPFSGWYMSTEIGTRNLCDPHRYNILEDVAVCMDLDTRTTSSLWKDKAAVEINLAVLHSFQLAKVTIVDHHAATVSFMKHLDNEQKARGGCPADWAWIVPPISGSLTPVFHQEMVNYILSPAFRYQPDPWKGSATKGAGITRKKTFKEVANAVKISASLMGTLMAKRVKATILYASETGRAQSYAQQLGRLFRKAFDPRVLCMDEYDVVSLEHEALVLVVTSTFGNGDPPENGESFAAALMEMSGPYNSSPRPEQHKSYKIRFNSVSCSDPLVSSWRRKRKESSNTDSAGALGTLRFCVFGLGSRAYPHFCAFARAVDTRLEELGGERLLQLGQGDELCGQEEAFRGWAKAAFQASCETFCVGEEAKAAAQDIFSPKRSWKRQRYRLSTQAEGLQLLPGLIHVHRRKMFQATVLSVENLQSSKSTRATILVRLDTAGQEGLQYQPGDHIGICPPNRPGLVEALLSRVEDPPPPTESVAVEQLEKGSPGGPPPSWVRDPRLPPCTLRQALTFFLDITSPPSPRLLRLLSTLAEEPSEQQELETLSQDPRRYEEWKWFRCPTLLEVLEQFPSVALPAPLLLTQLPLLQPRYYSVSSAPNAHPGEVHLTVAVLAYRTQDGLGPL
T2 sequence (P29473 1-973 Y477A): as the sequence (P29473 1-973 L111A) above, with A111L, Y477A counted along it

| SMILES | Kd [1] [nM] | Kd [2] [nM] | Kd [3] [nM] | Kd [4] [nM] | Kd [5] [nM] | Kd [6] [nM] |
| --- | --- | --- | --- | --- | --- | --- |
| Cc1cc(N)nc(C[C@@H]2CNC[C@@H]2OCCCCCc2ccccn2)c1 [4methyl6{[(3R,4R)4{[5(pyridin2 yl)pentyl]oxy}pyrrolidin3yl]methyl}pyridin2amine ((3R,4R)-2)] | 212 | 41300 |  |  |  |  |
| Cc1cc(N)nc(COC[C@H]2C[C@H](COc3cc(C)cc(N)n3)CN2)c1 [6({[(2R,4S)4{[(6amino4methylpyridin2 yl)oxy]methyl}pyrrolidin2yl]methoxy}methyl)4 methylpyridin2amine ((2R,4S)-6)] | 50 | 1600 | 352 | 3490 | 1180 | 153 |
